# Experimental data from US20220340633A1 (Adepthera LLC, priority 2016, published 2022).
# “Also recorded” adds a separate entry of the source. Non-standard residues stand in square brackets, D forms with d. Residues, ends and D or L forms follow the SMILES beside them. *: point of attachment. Palmitoyl = CCCCCCCCCCCCCCCC(=O)*; AEEA = NCCOCCOCC(=O)O
# How the values were obtained:
# CLR/RAMP3 receptor [1] = molecular target: T1, CLR/RAMP3 receptor (Homo sapiens, UniProt O60896+Q16602); experiment: CLR/RAMP3 cAMP receptor activation assay (agonist); format: cell-based; design: host or cells: CHO-K1 cells; conditions: CHO-K1, read-out: CLR/RAMP 3 Max Activity % of positive control
# Protocol: (§1) Using a receptor activation assay, the dose-dependent stimulatory response of peptide agonists of the present invention on a CLR/RAMP1 receptor, a CLR/RAMP2, or a CLR/RAMP3 receptor complex was determined. A cell line carrying the recombinant CLR/RAMP1, CLR/RAMP2, or a CLR/RAMP3 receptor was employed in the assay. Peptide agonist activities were tested, in duplicate, at 10 different concentrations, starting with 1.0 μM and serially diluted 3-fold, in DMSO. […] The CLR/RAMP1 cAMP, CLR/RAMP2 arrestin assays, and CLR/RAMP3 cAMP (DiscoveRx, Fremont, Calif.) were used.
# CLR/RAMP1 receptor [2] = molecular target: T2, CLR/RAMP1 receptor (Homo sapiens, UniProt O60894+Q16602); experiment: CLR/RAMP1 cAMP receptor activation assay (agonist); format: cell-based; design: host or cells: 1321N1 cells; conditions: 1321-N1, read-out: CLR/RAMP 1 Max Activity % of positive control, 1321N1 cells; % of positive control (β-CGRP)
# Protocol: as §1
# CLR/RAMP2 receptor = molecular target: T3, CLR/RAMP2 receptor (Homo sapiens, UniProt O60895+Q16602); experiment: CLR/RAMP2 arrestin receptor activation assay (agonist); format: cell-based; conditions: for Emax: CHO-K1, read-out: CLR/RAMP 2 Max Activity % of positive control, CHO-K1 cells, % of positive control (ADM)
# T3 construct: host or cells: CHO-K1 cells
# CLR/RAMP1 receptor [3] = molecular target: T2, CLR/RAMP1 receptor; conditions: CLR/RAMP1 versus CLR/RAMP2
# Protocol: as §1
# (§2) For the analysis of antagonistic activity, the synthetic analogs were pre-incubated with the cells before adding the reference ligand at its EC80.
# CLR/RAMP3 receptor [4] = molecular target: T1, CLR/RAMP3 receptor; experiment: cell-based
# Protocol: as §1, §2
# [5] = system: primary human lymphatic endothelia cells (HLEC); experiment: HLEC survival in medium with 0.1% FBS, MTS assay; conditions: 30, 100, and 300 nM, 72 hrs
# Protocol: (§3) The cells were cultured for 72 hrs, and cell viability was assayed with the MTS assay (Promega).
# [6] = system: primary human lymphatic endothelia cells (HLEC); experiment: HLEC proliferation in medium with 2% FBS, MTS assay; conditions: 30, 100, and 300 nM, 72 hrs
# Protocol: as §3
# T3 sequence (Q16602 23-461): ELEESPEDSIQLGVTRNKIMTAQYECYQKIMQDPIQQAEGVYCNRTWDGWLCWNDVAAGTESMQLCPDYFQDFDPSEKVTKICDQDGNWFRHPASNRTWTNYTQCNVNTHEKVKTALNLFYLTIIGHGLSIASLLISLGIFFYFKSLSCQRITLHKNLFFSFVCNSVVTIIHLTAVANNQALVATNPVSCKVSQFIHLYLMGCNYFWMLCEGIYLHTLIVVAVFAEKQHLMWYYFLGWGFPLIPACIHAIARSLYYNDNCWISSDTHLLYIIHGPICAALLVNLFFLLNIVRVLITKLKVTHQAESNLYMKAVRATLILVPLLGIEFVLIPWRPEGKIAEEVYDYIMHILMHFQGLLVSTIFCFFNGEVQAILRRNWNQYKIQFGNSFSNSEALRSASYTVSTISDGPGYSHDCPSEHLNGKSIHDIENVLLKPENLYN
# T3 sequence (O60895 43-175): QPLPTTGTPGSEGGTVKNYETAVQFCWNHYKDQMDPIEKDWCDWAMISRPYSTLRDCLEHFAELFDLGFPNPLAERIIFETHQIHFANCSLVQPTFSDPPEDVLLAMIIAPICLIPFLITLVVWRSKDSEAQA
# T2 sequence (Q16602 23-461): as the sequence (Q16602 23-461) above
# T2 sequence (O60894 27-148): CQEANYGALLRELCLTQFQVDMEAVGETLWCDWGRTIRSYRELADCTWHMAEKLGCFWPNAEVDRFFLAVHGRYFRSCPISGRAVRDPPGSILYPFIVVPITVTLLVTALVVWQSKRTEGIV
# T1 sequence (Q16602 23-461): as the sequence (Q16602 23-461) above
# T1 sequence (O60896 24-148): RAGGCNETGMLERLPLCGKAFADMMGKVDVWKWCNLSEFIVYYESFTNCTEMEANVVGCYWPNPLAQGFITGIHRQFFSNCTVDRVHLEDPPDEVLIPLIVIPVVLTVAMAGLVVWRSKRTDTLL
compound,measurement,setting,value
CCCCCCCCCCCCCCCC(=O)NCCCC[C@H](NC(=O)COCCOCCN)C(=O)NCC(=O)N[C@H]1CSSC[C@@H](C(=O)N[C@H](C(=O)N[C@H](C(=O)N[C@@H](CCC(N)=O)C(=O)N[C@@H](CCCCN)C(=O)N[C@@H](CC(C)C)C(=O)N[C@@H](C)C(=O)N[C@@H](Cc2c[nH]cn2)C(=O)N[C@@H](CCC(N)=O)C(=O)N[C@H](C(=O)N[C@@H](Cc2ccc(O)cc2)C(=O)N[C@@H](CCC(N)=O)C(=O)N[C@@H](Cc2ccccc2)C(=O)N[C@H](C(=O)N[C@@H](CC(=O)O)C(=O)N[C@@H](CCCCN)C(=O)N[C@@H](CC(=O)O)C(=O)N[C@H](C(=O)N[C@@H](C)C(=O)N2CCC[C@H]2C(=O)N[C@@H](CCCNC(=N)N)C(=O)N[C@@H](CO)C(=O)N[C@@H](CCCCN)C(=O)N[C@H](C(=O)N[C@@H](CO)C(=O)N2CCC[C@H]2C(=O)N[C@@H](CCC(N)=O)C(=O)NCC(=O)N[C@@H](Cc2ccc(O)cc2)C(N)=O)[C@@H](C)CC)C(C)C)[C@@H](C)O)[C@@H](C)CC)C(C)C)[C@@H](C)O)NC(=O)[C@H]([C@@H](C)O)NC(=O)CNC(=O)[C@H](Cc2ccccc2)NC(=O)[C@H](CCCNC(=N)N)NC1=O [SEQ ID NO: 101],Emax,CLR/RAMP3 receptor [1],129%
same,Emax,CLR/RAMP1 receptor [2],56%
same,Emax,CLR/RAMP2 receptor,74%
same,receptor specificity of agonist,CLR/RAMP2 receptor; CLR/RAMP2 versus CLR/RAMP1,CLR/RAMP2-specific
CCCCCCCCCCCCCCCC(=O)NCCCC[C@H](NC(=O)COCCOCCN)C(=O)N[C@H](C(=O)N[C@@H](CCC(N)=O)C(=O)N[C@@H](CCCCN)C(=O)N[C@@H](CC(C)C)C(=O)N[C@@H](C)C(=O)N[C@@H](Cc1c[nH]cn1)C(=O)N[C@@H](CCC(N)=O)C(=O)N[C@H](C(=O)N[C@@H](Cc1ccc(O)cc1)C(=O)N[C@@H](CO)C(=O)N[C@@H](C)C(=O)N1CCC[C@H]1C(=O)N[C@H](C(=O)N[C@@H](CC(=O)O)C(=O)N1CCC[C@H]1C(=O)N[C@@H](CO)C(=O)N[C@@H](CO)C(=O)N1CCC[C@H]1C(=O)N[C@@H](Cc1c[nH]cn1)C(=O)N[C@@H](CO)C(=O)N[C@@H](Cc1ccc(O)cc1)C(N)=O)C(C)C)[C@@H](C)CC)C(C)C [SEQ ID NO: 114],receptor specificity of antagonist,CLR/RAMP1 receptor [3],CLR/RAMP1-specific
same,IC50,CLR/RAMP3 receptor [4],0.8 to 9.2 nM
"CC[C@H](C)[C@H](NC(=O)[C@H](CCC(N)=O)NC(=O)[C@H](Cc1c[nH]cn1)NC(=O)[C@H](C)NC(=O)[C@H](CC(C)C)NC(=O)[C@H](CCCCN)NC(=O)[C@H](CCC(N)=O)NC(=O)[C@@H](NC(=O)[C@@H](NC(=O)[C@@H]1CSSC[C@H](NC(=O)CNC(=O)[C@H](Cc2ccccc2)NC(C)=O)C(=O)N[C@@H](CCCNC(=N)N)C(=O)N[C@@H](Cc2ccccc2)C(=O)NCC(=O)N[C@@H]([C@@H](C)O)C(=O)N1)[C@@H](C)O)C(C)C)C(=O)N[C@@H](Cc1ccc(O)cc1)C(=O)N[C@@H](CCC(N)=O)C(=O)N[C@@H](Cc1ccccc1)C(=O)N[C@H](C(=O)N[C@@H](CC(=O)O)C(=O)N[C@@H](CCCCN)C(=O)N[C@@H](CC(=O)O)C(=O)N[C@@H](CCCCN)C(=O)N[C@@H](CC(=O)O)C(=O)N[C@@H](CC(N)=O)C(=O)N[C@H](C(=O)N[C@@H](C)C(=O)N1CCC[C@H]1C(=O)N[C@@H](CCCNC(=N)N)C(=O)N[C@@H](CO)C(=O)N[C@@H](CCCCN)C(=O)N[C@H](C(=O)N[C@@H](CO)C(=O)N1CCC[C@H]1C(=O)N[C@@H](CCC(N)=O)C(=O)NCC(=O)N[C@@H](Cc1ccc(O)cc1)C(N)=O)[C@@H](C)CC)C(C)C)[C@@H](C)O [SEQ ID NO: 53, reference compound]",Emax,CLR/RAMP1 receptor [2],69%
same,HLEC survival (in words),[5],minimal effects; also recorded: negligible effects
same,Emax,CLR/RAMP2 receptor,102%
same,HLEC proliferation (in words),[6],minimal effects; also recorded: negligible effects
"CC[C@H](C)[C@H](NC(=O)[C@H](CCC(N)=O)NC(=O)[C@H](Cc1c[nH]cn1)NC(=O)[C@H](C)NC(=O)[C@H](CC(C)C)NC(=O)[C@H](CCCCN)NC(=O)[C@H](CCC(N)=O)NC(=O)[C@@H](NC(=O)[C@@H](NC(=O)[C@@H]1CSSC[C@H](NC(=O)CNC(=O)[C@H](Cc2ccccc2)NC(=O)[C@H](CO)NC(=O)[C@H](CCCNC(=N)N)NC(=O)[C@H](CC(C)C)NC(=O)CNC(=O)[C@H](CCC(N)=O)NC(=O)[C@H](Cc2ccccc2)NC(=O)[C@H](CC(N)=O)NC(=O)[C@H](CC(N)=O)NC(=O)[C@H](CCSC)NC(=O)[C@H](CO)NC(=O)[C@H](CCC(N)=O)NC(=O)[C@H](CCCNC(=N)N)NC(=O)[C@H](Cc2ccc(O)cc2)NC(C)=O)C(=O)N[C@@H](CCCNC(=N)N)C(=O)N[C@@H](Cc2ccccc2)C(=O)NCC(=O)N[C@@H]([C@@H](C)O)C(=O)N1)[C@@H](C)O)C(C)C)C(=O)N[C@@H](Cc1ccc(O)cc1)C(=O)N[C@@H](CCC(N)=O)C(=O)N[C@@H](Cc1ccccc1)C(=O)N[C@H](C(=O)N[C@@H](CC(=O)O)C(=O)N[C@@H](CCCCN)C(=O)N[C@@H](CC(=O)O)C(=O)N[C@@H](CCCCN)C(=O)N[C@@H](CC(=O)O)C(=O)N[C@@H](CC(N)=O)C(=O)N[C@H](C(=O)N[C@@H](C)C(=O)N1CCC[C@H]1C(=O)N[C@@H](CCCNC(=N)N)C(=O)N[C@@H](CO)C(=O)N[C@@H](CCCCN)C(=O)N[C@H](C(=O)N[C@@H](CO)C(=O)N1CCC[C@H]1C(=O)N[C@@H](CCC(N)=O)C(=O)NCC(=O)N[C@@H](Cc1ccc(O)cc1)C(N)=O)[C@@H](C)CC)C(C)C)[C@@H](C)O [SEQ ID NO: 54, reference compound]",HLEC survival (in words),[5],minimal effects; also recorded: negligible effects
same,HLEC proliferation (in words),[6],minimal effects; also recorded: negligible effects
CCCCCCCCCCCCCCCC(=O)NCCCC[C@H](NC(=O)COCCOCCN)C(=O)N[C@H](C(=O)N[C@@H](CCC(N)=O)C(=O)N[C@@H](CCCCN)C(=O)N[C@@H](CC(C)C)C(=O)N[C@@H](C)C(=O)N[C@@H](Cc1c[nH]cn1)C(=O)N[C@@H](CCC(N)=O)C(=O)N[C@H](C(=O)N[C@@H](Cc1ccc(O)cc1)C(=O)N[C@@H](CCC(N)=O)C(=O)N[C@@H](Cc1ccccc1)C(=O)N[C@H](C(=O)N[C@@H](CC(=O)O)C(=O)N[C@@H](CCCCN)C(=O)N[C@@H](CC(=O)O)C(=O)N[C@@H](CCCCN)C(=O)N[C@@H](CC(=O)O)C(=O)N[C@@H](CC(N)=O)C(=O)N[C@@H](CO)C(=O)N[C@@H](C)C(=O)N1CCC[C@H]1C(=O)N[C@H](C(=O)N[C@@H](CC(=O)O)C(=O)N1CCC[C@H]1C(=O)N[C@@H](CO)C(=O)N[C@@H](CO)C(=O)N1CCC[C@H]1C(=O)N[C@@H](Cc1c[nH]cn1)C(=O)N[C@@H](CO)C(=O)N[C@@H](Cc1ccc(O)cc1)C(N)=O)C(C)C)[C@@H](C)O)[C@@H](C)CC)C(C)C [SEQ ID NO: 78] (H-[AEEA]K(Palmitoyl)VQKLAHQIYQFTDKDKDNSAPVDPSSPHSY-NH2),IC50,CLR/RAMP3 receptor [4],0.8 to 9.2 nM
CCCCCCCCCCCCCCCC(=O)N[C@@H](CCCCN)C(=O)N[C@H](C(=O)N[C@@H](CCC(N)=O)C(=O)N[C@@H](CCCCN)C(=O)N[C@@H](CC(C)C)C(=O)N[C@@H](C)C(=O)N[C@@H](Cc1c[nH]cn1)C(=O)N[C@@H](CCC(N)=O)C(=O)N[C@H](C(=O)N[C@@H](Cc1ccc(O)cc1)C(=O)N[C@@H](CCC(N)=O)C(=O)N[C@@H](Cc1ccccc1)C(=O)N[C@H](C(=O)N[C@@H](CC(=O)O)C(=O)N[C@@H](CCCCN)C(=O)N[C@@H](CC(=O)O)C(=O)N[C@H](C(=O)N[C@@H](C)C(=O)N1CCC[C@H]1C(=O)N[C@@H](CCCNC(=N)N)C(=O)N[C@@H](CO)C(=O)N[C@@H](CCCCN)C(=O)N[C@H](C(=O)N[C@@H](CO)C(=O)N1CCC[C@H]1C(=O)N[C@@H](CCC(N)=O)C(=O)NCC(=O)N[C@@H](Cc1ccc(O)cc1)C(N)=O)[C@@H](C)CC)C(C)C)[C@@H](C)O)[C@@H](C)CC)C(C)C [SEQ ID NO: 119],receptor specificity of antagonist,CLR/RAMP1 receptor [3],CLR/RAMP2-specific
same,IC50,CLR/RAMP3 receptor [4],0.8 to 9.2 nM
CCCCCCCCCCCCCCCC(=O)NCCCC[C@H](NC(=O)COCCOCCN)C(=O)N[C@H](C(=O)N[C@@H](CCC(N)=O)C(=O)N[C@@H](CCCCN)C(=O)N[C@@H](CC(C)C)C(=O)N[C@@H](C)C(=O)N[C@@H](Cc1c[nH]cn1)C(=O)N[C@@H](CCC(N)=O)C(=O)N[C@H](C(=O)N[C@@H](Cc1ccc(O)cc1)C(=O)N[C@@H](CCC(N)=O)C(=O)N[C@@H](Cc1ccccc1)C(=O)N[C@H](C(=O)N[C@@H](CC(=O)O)C(=O)N[C@@H](CCCCN)C(=O)N[C@@H](CC(=O)O)C(=O)N[C@@H](CO)C(=O)N[C@@H](C)C(=O)N1CCC[C@H]1C(=O)N[C@H](C(=O)N[C@@H](CC(=O)O)C(=O)N1CCC[C@H]1C(=O)N[C@@H](CO)C(=O)N[C@@H](CO)C(=O)N1CCC[C@H]1C(=O)N[C@@H](Cc1c[nH]cn1)C(=O)N[C@@H](CO)C(=O)N[C@@H](Cc1ccc(O)cc1)C(N)=O)C(C)C)[C@@H](C)O)[C@@H](C)CC)C(C)C [SEQ ID NO: 112] (H-[AEEA]K(Palmitoyl)VQKLAHQIYQFTDKDSAPVDPSSPHSY-NH2),IC50,CLR/RAMP3 receptor [4],0.8 to 9.2 nM
CCCCCCCCCCCCCCCC(=O)N[C@@H](CCCCN)C(=O)N[C@H](C(=O)N[C@@H](CCC(N)=O)C(=O)N[C@@H](CCCCN)C(=O)N[C@@H](CC(C)C)C(=O)N[C@@H](C)C(=O)N[C@@H](Cc1c[nH]cn1)C(=O)N[C@@H](CCC(N)=O)C(=O)N[C@H](C(=O)N[C@@H](CO)C(=O)N[C@@H](C)C(=O)N1CCC[C@H]1C(=O)N[C@H](C(=O)N[C@@H](CC(=O)O)C(=O)N1CCC[C@H]1C(=O)N[C@@H](CO)C(=O)N[C@@H](CO)C(=O)N1CCC[C@H]1C(=O)N[C@@H](Cc1c[nH]cn1)C(=O)N[C@@H](CO)C(=O)N[C@@H](Cc1ccc(O)cc1)C(N)=O)C(C)C)[C@@H](C)CC)C(C)C [SEQ ID NO: 123],IC50,CLR/RAMP3 receptor [4],0.8 to 9.2 nM
